# Test results taken from patent US20240000698A1, “COMPOSITION COMPRISING FERMENTED EXTRACT FROM PINE FOR PREVENTING SKIN WRINKLE, IMPROVING SKIN BARRIER FUNCTION, PREVENTING HAIR LOSS, PROMOTING HAIR GROWTH AND IMPROVING HAIR HEALTH AND METHOD FOR MANUFACTURING THE SAME” (TaedamBio Co., Ltd., priority 2022, published 2024).
# Experiment: DPPH free radical scavenging activity measurement test
# Type: biochemical
# Procedure: The free radical scavenging activity measurement test was conducted using 2,2-diphenyl-1-picrylhydrazyl (DPPH) to evaluate the free radical scavenging activity contained in active oxygen, which is one of the antioxidant effects on the fermented pine tree extract obtained by the above method (testing institution: Korea Testing and Research Institute, test number: TNK-2022-000242). The fermented pine extract was prepared at 5, 10, 20, and 30% concentrations using ethanol, and as a positive control material, L-Ascorbic acid was weighed, and was prepared at concentrations of 0.0005, 0.001, 0.0015, and 0.002% using distilled water. Ethanol was used to prepare DPPH at concentrations of 0.2 mM. 100 μL of the preparations for each concentration were dispensed into a 96-well plate, 0.2 mM DPPH and 100 μL of Ethanol were added, and reacted at room temperature for 30 minutes in a light-shielding state, and then absorbance was measured at 517 nm wavelength. The DPPH free radical scavenging activity (%) was calculated using the following formula. Each experimental result was measured three times to calculate the mean and standard deviation, and the confidence interval was set at 95%. [formula] [formula]
smiles,measurement,setting,value
"O=C1O[C@H]([C@@H](O)CO)C(O)=C1O [positive control substance, L-Ascorbic acid]",IC50 (concentration representing 50% activity),DPPH free radical scavenging,0.0013%
same,DPPH free radical scavenging activity,positive control 0.0015% in distilled water,57.25%
same,DPPH free radical scavenging activity,positive control 0.002% in distilled water,77.39%
